Reference: patent publication US3984413A, “Phenoxyalkanecarboxylic acid esters of hydroxyalkyltheophyllines and method for their manufacture” (L. Merckle KG, priority 1973, dated 1976)
Where two headings read alike, the source gives them in different places.

Assays:
[1] = acute toxicity (LD50) in mice, oral; conditions: in vivo, mouse
Method: (§1) The acute toxicity of the preparations according to the invention was tested on CFJ strain mice and Sprague-Dawley rats.
(§2) The test substances according to Examples 2,5,6,8 and 10 were administered orally as a 5% suspension in methylcellulose by means of a probang, while the test material according to Example 4, was administered in a 8% gelatin suspension. The test materials for Examples 1 and 3 were administered orally by probang in an aqueous kaolin paste to rats (5 female and 5 male rats weighing 140 to 185 grams each).
(§3) The period of observation was 7 days.

[2] = over-all tolerance and clinical pattern during the rat lipid trial; type: in vivo, rat (male SPF Wistar)
Method: (§4) The antilipemic and anticholesterolemic action of the compounds according to the invention and of Clofibrat as a standard of comparison was tested on each of 10 male SPF Wistar strain rats of body weights from 80 to 90 g. For test purposes the animals were kept individually apart with restricted feed but water as desired. The animals of control group I were given 10 g basal diet daily, those of control group II, the test groups as well as the Clofibrat comparison group received in addition to the basal diet a fatty composition consisting of 40 g/kg butter with 5 g/kg cholesterol. The test substances conforming to the examples, and also the Clofibrat, were suspended in a 0.2% methylcellulose solution and administered by probang. The final cholesterol value and the value of the nonvolatile triglycerides was determined after 14 days treatment. The analyses were performed in the blood serum by means of an SMA 12/60 auto-analyzer.
There were no deaths. […] No difference could be determined in hearing tests.

[3] = antilipemic and anticholesterolemic action in rats on fatty diet, 14 days; type: in vivo, rat (male SPF Wistar); conditions: for Drop (nonvolatile triglycerides) / Final value cholesterol / Final value nonvolatile triglycerides / Drop (cholesterol): 14 days; for Final value cholesterol / Final value nonvolatile triglycerides: blood serum; for reduction of the triglycerides compared with Clofibrat: in a substantially lower dosage than Clofibrat
Method: as §4

[4] = action on peripheral circulation in narcotized dogs; type: in vivo, dog
From the text: According to Examples 2, 3 and 4, the peripheral circulation is increased some 20-30% of its initial level by the test substances according to those examples.

[5] = action on blood pressure in narcotized dogs; conditions: into the duodenum, doses up to 200 mg/kg
[6] = acute toxicity (LD50) in rats, oral; conditions: in vivo, rat
Method: as §1, §2, §3

[7] = mouse; comparison, literature data; 10080 min; cited from earlier work
[8] = cited from earlier work
[9] = oral, 5% suspension in methylcellulose, 7 days, according to Litchfield and Wilcoxon
[10] = versus control groups and Clofibrat comparison group

SMILES	LD50 at 168 h [1, 9]	Drop (nonvolatile triglycerides) ([3]; 100 mg/kg)	Final value cholesterol ([3]; 100 mg/kg)	Final value nonvolatile triglycerides ([3]; 100 mg/kg)	increase of peripheral circulation, of its initial level [4]	systolic and diastolic blood pressure [5]	other results
CC(Oc1cccc(C(F)(F)F)c1)C(=O)OCCn1cnc2c1c(=O)n(C)c(=O)n2C (stereo not shown) [Example 8]	2140 mg/kg	–	–	–	–	–	–
CC(Oc1ccc(Cl)cc1)C(=O)OCCn1cnc2c1c(=O)n(C)c(=O)n2C (stereo not shown) [Example 6]	1540 mg/kg	–	–	–	–	–	–
Cn1c(=O)c2c(ncn2CC(O)COC(=O)COc2ccc(Cl)cc2)n(C)c1=O (stereo not shown) [Example 2, 1-(7-theophyllinyl)-2-hydroxy-3-propyl (p-chlorophenoxyacetate)]	2150 mg/kg	45.9%	130.3 mg %	73.4	20-30%	did not acutely affect the systolic and diastolic blood pressure to any substantial degree	over-all tolerance [2, 10]: no differences in the over-all tolerance; reduction of the triglycerides compared with Clofibrat [3]: more than twice as large a reduction of the triglycerides
Cn1c(=O)c2c(ncn2CCOC(=O)C(Oc2ccc(Cl)cc2)Oc2ccc(Cl)cc2)n(C)c1=O [Example 4, 1-(7-theophyllinyl)-2-ethyl bis-(p-chlorophenoxy) acetate]	–	–	111.0 mg %	179.7	20-30%	did not acutely affect the systolic and diastolic blood pressure to any substantial degree	weight increase ([2]; 100 mg/kg dosage): reduced increase in weight; Final value cholesterol ([3]; 35 mg/kg): 132.3 mg %; Final value nonvolatile triglycerides ([3]; 35 mg/kg): 148.3; Drop (cholesterol) ([3]; 100 mg/kg): 9.8%; LD50 at 168 h ([1]; po): 1910 mg/kg
Cn1c(=O)c2c(ncn2CCOC(=O)COc2ccc(Cl)cc2)n(C)c1=O [Example 5]	1510 mg/kg	–	–	–	–	–	–
Cn1c(=O)c2c(ncn2CCOC(=O)C(C)(C)Oc2ccc(Cl)cc2)n(C)c1=O [Example 1, 1-(7-theophyllinyl)-2-ethyl [2-(p-chlorophenoxy)-isobutyrate]]	–	17.3%	95.2 mg %	112.2	up to 10%	–	over-all tolerance ([2]; rat, in vivo): no differences in the over-all tolerance; Drop (cholesterol) ([3]; 100 mg/kg): 22.7%; lowering of increased cholesterol values (in words) ([3]; in comparison to Clofibrat): with greater significance lower the increased cholesterol values; reduction of the triglycerides (in words) ([3]; rat, in vivo): comparatively good reduction of the triglycerides; peripheral circulation activity (in words) [4]: only slight activity; LD50 at 168 h ([6]; oral by probang, aqueous kaolin paste, 7 days observation): > 4000 mg/kg
Cn1c(=O)c2c(ncn2CC(COC(=O)COc2ccc(Cl)cc2)OC(=O)COc2ccc(Cl)cc2)n(C)c1=O (stereo not shown) [Example 3, 1-(7-theophyllinyl)-2,3-propylidenedi(p-chlorophenoxy acetate)]	–	44.2%	122.0 mg %	75.7	20-30%	did not acutely affect the systolic and diastolic blood pressure to any substantial degree	over-all tolerance [2, 10]: no differences in the over-all tolerance; reduction of the triglycerides compared with Clofibrat [3]: more than twice as large a reduction of the triglycerides; LD50 at 168 h ([6]; po): > 4000 mg/kg
Cn1c(=O)c2c(ncn2CCOC(=O)COc2ccc(F)cc2)n(C)c1=O [Example 10]	1680 mg/kg	–	–	–	–	–	–
CCOC(=O)C(C)(C)Oc1ccc(Cl)cc1 [Clofibrat, ethyl 2-(p-chlorophenoxy) isobutyrate, reference compound]	–	–	–	–	–	–	LD50 [7]: 1150 mg/kg; effect on cholesterol value ([8]; fatty diet rat test, Berger et al. 1969): does not lower but even raises the cholesterol value; lowering of cholesterol ([8]; reported in the literature): frequently been reported in the literature; Drop (nonvolatile triglycerides) ([3]; 250 mg/kg): 20.6%; Final value cholesterol ([3]; 250 mg/kg): 133.3 mg %; Final value nonvolatile triglycerides ([3]; 250 mg/kg): 107.7; lowering of cholesterol ([3]; fatty diet rats, in these experimental trials): absolutely inactive
